Assay results: patent US20240287070A1, “FUSED HETEROCYCLIC DERIVATIVES” (Janssen Sciences Ireland Unlimited Company, priority 2021, published 2024)

Assays:
[1] = tested on: HBV (HepG2.117 cell line, inducibly HBV producing); assay: Anti-HBV activity, intracellular HBV DNA by real-time PCR in HepG2.117 cell line; format: cell-based, hepatitis B virus; details: HepG2.117 cells, 3 days of treatment
How it was run: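 HepG2.117 cells (Tet-off, inducible HBV production) were induced to replicate HBV by doxycycline absence, then treated with serially diluted compound for 3 days. Activity was quantified as intracellular HBV DNA by real-time PCR using an HBV-specific primer set and probe.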

[2] = Human liver microsome stability; format: in vitro ADME; details: for half-life at 1 μM: pooled human liver microsomes, pH 7.4, pooled human liver microsomes 0.5 mg/mL, read-out: HLM Metabolism t1/2
How it was run: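 Single incubations with human liver microsomes started with 1 mM NADPH; samples taken at 0, 5, 10, 20, 40 and 60 min, quenched in acetonitrile (1:3). Cassette LC-MS analysis with internal standard; t½ derived from slope of ln peak-area ratio versus time (k = −gradient).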

HepG2 or HepG2.117 cells = assay: Cytotoxicity, ATPlite Luminescence Assay; format: cell-based, human; details: 3-days incubation unless marked with *
How it was run: (§1)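 Cells were exposed to compounds for 3 or 4 days, after which viability was determined by ATP-based luminescence (ATPlite).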

[3] = Cytotoxicity, ATPlite Luminescence Assay; format: cell-based, human; details: human, HepG2 or HepG2.117 cells, 3-days incubation unless marked with *
How it was run: as §1

[4] = human, 1 μM compound, NADPH 1 mM, 37° C., 0-60 min
[5] = Hepatitis B virus, HepG2.117, 72 h

Structure (SMILES) | EC50 [1] [µM] | HLM Metabolism t1/2 ([2]; human, microsomes) [h] | CC50 (HepG2 or HepG2.117 cells) [µM] | HLM Metabolism t1/2 ([2]; pooled human liver microsomes 0.5 mg/mL, 1 μM compound, NADPH 1 mM, 37° C., 0-60 min) [h] | half-life at 1 μM [2, 4] [h] | CC50 at 3 days [3] [µM] | EC50 [1, 5] [µM]
C[C@@H]1Cc2nn3c(c2CN1C(=O)c1ccc(Cl)c(C#N)c1)C(=O)N([C@@H](C)c1ccc(OC(F)F)cc1)C[C@H]3C (relative stereo) [Compound 1D, 2-Chloro-5-((3R,7R*)-9-((S*)-1-(4-(difluoromethoxy)phenyl)ethyl)-3,7-dimethyl-O-oxo-1,2,3,4,7,8,9,10-octahydropyrido[4′,3′:3,4]pyrazolo[1,5-a]pyrazine-2-carbonyl)benzonitrile] | 0.021 | >3 | > 50 |  |  |  | 
C[C@@H]1Cc2nn3c(c2CN1C(=O)c1ccc(Cl)c(C(F)(F)F)c1)C(=O)N([C@H](C)c1ccc([S@@](C)(=O)=NC#N)cc1)C[C@H]3C (relative stereo) [Compound 20A, N—((R*)-(4-((R*)-1-((3R,7R)-2-(4-chloro-3-(trifluoromethyl)benzoyl)-3,7-dimethyl-10-oxo-1,3,4,7,8,10-hexahydropyrido[4′,3′:3,4]pyrazolo[1,5-a]pyrazin-9(2H)-yl)ethyl)phenyl)(methyl)(oxo)-16-sulfaneylidene)cyanamide] | 0.041 |  | > 50 | >3 |  |  | 
CC(c1cnn(C2CC2)c(=O)c1)N1C[C@@H](C)n2nc3c(c2C1=O)CN(C(=O)c1ccc(Cl)c(C(F)(F)F)c1)[C@H](C)C3 (single isomer, unassigned) [Compound 54A, (3R,7R)-2-(4-chloro-3-(trifluoromethyl)benzoyl)-9-((R*)-1-(1-cyclopropyl-6-oxo-1,6-dihydropyridazin-4-yl)ethyl)-3,7-dimethyl-1,2,3,4,8,9-hexahydropyrido[4′,3′: 3,4]pyrazolo[1,5-a]pyrazin-10(7H)-one] | 0.16 |  |  |  | 1.29 | > 50 | 
CC(c1ccc(=O)n(C)n1)N1C[C@@H](C)n2nc3c(c2C1=O)CN(C(=O)c1ccc(Cl)c(Cl)c1)[C@H](C)C3 (single isomer, unassigned) [Compound 55A, (3R,7R)-2-(3,4-dichlorobenzoyl)-3,7-dimethyl-9-((R*)-1-(1-methyl-6-oxo-1,6-dihydropyridazin-3-yl)ethyl)-1,2,3,4,8,9-hexahydropyrido[4′,3′:3,4]pyrazolo[1,5-a]pyrazin-10(7H)-one] |  |  |  |  | > 3 | > 50 | 0.051
CC(c1cn(C2CC2)c(=O)cn1)N1C[C@@H](C)n2nc3c(c2C1=O)CN(C(=O)c1ccc(Cl)c(Cl)c1)[C@H](C)C3 (single isomer, unassigned) [Compound 56A, (3R,7R)-9-((R*)-1-(4-cyclopropyl-5-oxo-4,5-dihydropyrazin-2-yl)ethyl)-2-(3,4-dichlorobenzoyl)-3,7-dimethyl-1,2,3,4,8,9-hexahydropyrido[4′,3′:3,4]pyrazolo[1,5-a]pyrazin-10(7H)-one] | 0.29 |  |  |  | > 3 | > 50 | 
CC(c1ccc(C(C)(C)O)nc1)N1C[C@@H](C)n2nc3c(c2C1=O)CN(C(=O)c1cc(Cl)c(Cl)cn1)[C@H](C)C3 (single isomer, unassigned) [Compound 57A, (3R,7R)-2-(4,5-dichloropicolinoyl)-9-((R*)-1-(6-(2-hydroxypropan-2-yl)pyridin-3-yl)ethyl)-3,7-dimethyl-1,2,3,4,8,9-hexahydropyrido[4′,3′:3,4]pyrazolo[1,5-a]pyrazin-10(7H)-one] | > 2.5 |  |  |  | > 3 | > 50 | 
CC(c1ccc(C(C)(C)O)nc1)N1C[C@@H](C)n2nc3c(c2C1=O)CN(C(=O)c1cc(C(F)(F)F)c(Cl)cn1)[C@H](C)C3 (single isomer, unassigned) [Compound 58A, (3R,7R)-2-(5-chloro-4-(trifluoromethyl)picolinoyl)-9-((R*)-1-(6-(2-hydroxypropan-2-yl)pyridin-3-yl)ethyl)-3,7-dimethyl-1,2,3,4,8,9-hexahydropyrido[4′,3′:3,4]pyrazolo[1,5-a]pyrazin-10(7H)-one] | > 2.5 |  |  |  | > 3 | > 50 | 
CC(c1ccc(C(C)(C)O)nc1)N1C[C@@H](C)n2nc3c(c2C1=O)CN(C(=O)c1ccc(Cl)c(F)c1)[C@H](C)C3 (single isomer, unassigned) [Compound 59A, (3R,7R)-2-(4-chloro-3-fluorobenzoyl)-9-((R*)-1-(6-(2-hydroxypropan-2-yl)pyridin-3-yl)ethyl)-3,7-dimethyl-1,2,3,4,8,9-hexahydropyrido[4′,3′:3,4]pyrazolo[1,5-a]pyrazin-10(7H)-one] | 0.51 |  |  |  | > 3 | > 50 | 
CC(c1ccc(C(C)(C)O)nc1)N1C[C@@H](C)n2nc3c(c2C1=O)CN(C(=O)c1cc(F)c(Cl)c(F)c1)[C@H](C)C3 (single isomer, unassigned) [Compound 60A, (3R,7R)-2-(4-chloro-3,5-difluorobenzoyl)-9-((R*)-1-(6-(2-hydroxypropan-2-yl)pyridin-3-yl)ethyl)-3,7-dimethyl-1,2,3,4,8,9-hexahydropyrido[4′,3′:3,4]pyrazolo[1,5-a]pyrazin-10(7H)-one] | 0.3 |  |  |  | > 3 | > 50 | 
CC(c1ccc(C(C)(C)O)nc1)N1C[C@@H](C)n2nc3c(c2C1=O)CN(C(=O)c1ccc(Cl)c(F)c1F)[C@H](C)C3 (single isomer, unassigned) [Compound 61A, (3R,7R)-2-(4-chloro-2,3-difluorobenzoyl)-9-((R*)-1-(6-(2-hydroxypropan-2-yl)pyridin-3-yl)ethyl)-3,7-dimethyl-1,2,3,4,8,9-hexahydropyrido[4′,3′:3,4]pyrazolo[1,5-a]pyrazin-10(7H)-one] | 2.34 |  |  |  | > 3 | > 50 | 
CC(c1ccc(C(C)(C)O)nc1)N1C[C@@H](C)n2nc3c(c2C1=O)CN(C(=O)c1ccc(Cl)c(C(F)(F)F)n1)[C@H](C)C3 (single isomer, unassigned) [Compound 62A, (3R,7R)-2-(5-chloro-6-(trifluoromethyl)picolinoyl)-9-((R*)-1-(6-(2-hydroxypropan-2-yl)pyridin-3-yl)ethyl)-3,7-dimethyl-1,2,3,4,8,9-hexahydropyrido[4′,3′:3,4]pyrazolo[1,5-a]pyrazin-10(7H)-one] | 0.61 |  |  |  | > 3 | > 50 | 
CC(c1ccc(C(C)(C)O)nc1)N1C[C@@H](C)n2nc3c(c2C1=O)CN(C(=O)c1ccc(Cl)c(C#N)c1)[C@H](C)C3 (single isomer, unassigned) [Compound 63A, 2-chloro-5-((3R,7R)-9-((R*)-1-(6-(2-hydroxypropan-2-yl)pyridin-3-yl)ethyl)-3,7-dimethyl-10-oxo-1,2,3,4,7,8,9,10-octahydropyrido[4′,3′:3,4]pyrazolo[1,5-a]pyrazine-2-carbonyl)benzonitrile] | 0.38 |  |  |  | > 3 | > 50 | 
CC(c1ccn(CC(C)(C)O)c(=O)c1)N1C[C@@H](C)n2nc3c(c2C1=O)CN(C(=O)c1ccc(Cl)c(C(F)(F)F)c1)[C@H](C)C3 (single isomer, unassigned) [Compound 64A, (3R,7R)-2-(4-chloro-3-(trifluoromethyl)benzoyl)-9-((R*)-1-(1-(2-hydroxy-2-methylpropyl)-2-oxo-1,2-dihydropyridin-4-yl)ethyl)-3,7-dimethyl-1,2,3,4,8,9-hexahydropyrido[4′,3′:3,4]pyrazolo[1,5-a]pyrazin-10(7H)-one] | 0.039 |  |  |  | 1.82 | > 50 | 
CC(c1ccccn1)N1C[C@@H](C)n2nc3c(c2C1=O)CN(C(=O)c1ccc(Cl)c(Cl)c1)[C@H](C)C3 (single isomer, unassigned) [Compound 65A, (3R,7R)-2-(3,4-dichlorobenzoyl)-3,7-dimethyl-9-((R*)-1-(pyridin-2-yl)ethyl)-1,2,3,4,8,9-hexahydropyrido[4′,3′:3,4]pyrazolo[1,5-a]pyrazin-10(7H)-one] |  |  |  |  | 2.53 | > 50 | 0.034
CC(c1ccc(C#N)cc1)N1C[C@@H](C)n2nc3c(c2C1=O)CN(C(=O)c1ccc(Cl)c(Cl)c1)[C@H](C)C3 (single isomer, unassigned) [Compound 66A, 4-((R*)-1-((3R,7R)-2-(3,4-dichlorobenzoyl)-3,7-dimethyl-10-oxo-1,3,4,7,8,10-hexahydropyrido[4′,3′:3,4]pyrazolo[1,5-a]pyrazin-9(2H)-yl)ethyl)benzonitrile] | 0.037 |  |  |  | > 3 | > 26.2 | 
C[C@@H]1Cc2nn3c(c2CN1C(=O)c1ccc(Cl)c(C#N)c1)C(=O)N([C@H](C)c1ccc(OC(F)F)cc1)CC3 [Ref 1, reference compound] |  |  |  |  | 0.583 | > 12.5 | 0.095
C[C@@H]1Cc2nn3c(c2CN1C(=O)c1ccc(Cl)c(C#N)c1)C(=O)N([C@@H](C)c1ccc(OC(F)F)cc1)CC3 [Ref 2, reference compound] |  |  |  |  | 0.63 | > 50 | 0.03
